{
  "source": "patent US11008554B2",
  "about": "(priority 2014, dated 2021)",
  "molecular_target": "recombinant human AChE (Homo sapiens, UniProt P22303, D92N/S572N)",
  "sequence (P22303 whole entry D92N/S572N, looked up)": "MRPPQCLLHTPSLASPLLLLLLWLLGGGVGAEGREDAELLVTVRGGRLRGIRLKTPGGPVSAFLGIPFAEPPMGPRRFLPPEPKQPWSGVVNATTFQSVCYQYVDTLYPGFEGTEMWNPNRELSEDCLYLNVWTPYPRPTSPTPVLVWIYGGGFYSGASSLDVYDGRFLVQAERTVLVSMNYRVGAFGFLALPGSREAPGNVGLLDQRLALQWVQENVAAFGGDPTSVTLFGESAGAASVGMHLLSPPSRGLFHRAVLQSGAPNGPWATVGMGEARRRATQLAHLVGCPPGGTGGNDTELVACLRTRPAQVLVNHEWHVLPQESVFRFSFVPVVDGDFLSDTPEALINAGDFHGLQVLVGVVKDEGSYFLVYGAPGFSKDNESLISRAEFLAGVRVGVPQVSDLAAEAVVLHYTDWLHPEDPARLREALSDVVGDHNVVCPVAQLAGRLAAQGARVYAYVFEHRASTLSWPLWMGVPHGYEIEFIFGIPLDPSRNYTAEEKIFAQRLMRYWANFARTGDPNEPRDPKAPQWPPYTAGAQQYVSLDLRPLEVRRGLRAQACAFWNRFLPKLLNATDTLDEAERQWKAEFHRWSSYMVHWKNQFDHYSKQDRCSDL",
  "format": "biochemical",
  "data": [
    {"compound": "CCOP(=O)(OCC)Oc1ccc([N+](=O)[O-])cc1", "note": "[paraoxon]", "values": [
      {"measurement": "inhibition of AChE enzyme (localized red spot)", "result": "inhibited"}
    ]}
  ]
}
